# Source: the RepoRT retention time repository (doi:10.1021/acs.analchem.2c02893)
# Assay: RP, Thermo Scientific Acclaim RSLC 120 C18, 100 × 2.1 mm, 2.2 µm, 30 °C, 0.2 mL/min, estimated dead time 1.1 min; A: 90% water + 10% methanol + 0.01% formic acid + 5 mM ammonium formate, pH 3.61; B: methanol + 0.01% formic acid + 5 mM ammonium formate, pH 3.61; gradient (min/%B) 0/1 1/1 2/39 13/99.9 15/99.9 15.1/1 20.1/1
# Conditions: stereoisomer not certain
row,SMILES,LC retention time
1,CC(=O)OCCC(SC(C)=O)=C(C)N(C=O)Cc1cnc(C)nc1N [Acetiamine],4.46 min
2,O=C1CN=C(c2ccccc2Cl)c2cc([N+](=O)[O-])ccc2N1 [Clonazepam],7.61 min
3,CNC(=O)Oc1cc(C)cc(C(C)C)c1 [Promecarb],9.51 min
4,CCc1cccc(C)c1N(C(=O)CS(=O)(=O)O)C(C)C(=O)O (stereo not drawn),10.9 min
5,CC(C)NCC(O)COc1ccc(CCOCC2CC2)cc1 (stereo not drawn) [Betaxolol],6.68 min
6,CNC(=O)Oc1cccc(N=CN(C)C)c1 [Formetanate],3.14 min
7,CNC1(c2ccccc2Cl)CCCCC1=O (stereo not drawn) [Ketamine],4.61 min
8,CC1N=C(c2ccccc2Cl)c2cc([N+](=O)[O-])ccc2NC1=O (stereo not drawn) [Meclonazepam],8.28 min
9,CCCOCC(=Nc1ccc(Cl)cc1C(F)(F)F)n1ccnc1 [Triflumizole],11.8 min
10,CN1C(=O)C(O)N=C(c2ccccc2)c2cc(Cl)ccc21 (stereo not drawn) [Temazepam],7.94 min
11,CCNC(C)C(O)c1ccc(O)c(O)c1 (stereo not drawn) [Dioxethedrin],1.99 min
12,CC(C)C(O)(C(=O)OCC1=CCN2CCC(O)C12)C(C)O (stereo not drawn) [Lycopsamine],3.65 min
13,CC1CN(C2CCC(C#N)(c3ccc(F)cc3)CC2)CCC1(C(=O)O)c1ccccc1 (stereo not drawn) [Levocabastine],6.95 min
14,CCC(CN(C)C)(CN(C)C)OC(=O)c1ccccc1 [Alypin],6.07 min
15,O=c1[nH]c2c(c(=O)n1C1CCCCC1)CCC2 [Lenacil],8.27 min
16,CCCCCn1cc(C(=O)c2ccccc2OC)c2ccccc21 [RCS-4-ortho],11.2 min
17,CC12CCC3c4cc(O)c(O)cc4CCC3C1CCC2=O (stereo not drawn),8.56 min
18,O=C(NC(=O)c1c(F)cccc1F)Nc1ccc(Cl)cc1 [Diflubenzuron],10.6 min
19,CC(Cc1ccc(O)cc1)NCC(O)c1cc(O)cc(O)c1 (stereo not drawn) [Fenoterol],3.61 min
20,Cc1cc(Cl)ccc1N=CN(C)C [Chlordimeform],4.64 min
21,O=C(Oc1ccccc1)c1ccccc1C(=O)Oc1ccccc1 [Phthalate-Diphenyl],11.2 min
22,CC12CCC3c4ccc(O)c(O)c4CCC3C1CCC2=O (stereo not drawn),8.69 min
23,CCS(=O)Cc1ccccc1OC(=O)NC (stereo not drawn) [Ethiofencarb-sulfoxide],4.7 min

row,SMILES,LC retention time
1,CC(C)=CC1C(C(=O)OCN2C(=O)C3=C(CCCC3)C2=O)C1(C)C (stereo not drawn) [Tetramethrin],12.2 min
2,COc1ccc2[nH]cc(CC(C)N)c2c1 (stereo not drawn) [MeO-AMT (5-)],4.36 min
3,CCCCC(O)(Cn1cncn1)c1ccc(Cl)cc1Cl (stereo not drawn) [Hexaconazole],11.2 min
4,CCCCCn1c2ccccc2c2cc(C(=O)c3cccc4ccccc34)ccc21 [EG-018],14.2 min
5,CP(=O)(O)CCC(N)C(=O)O (stereo not drawn) [Glufosinate],1.44 min
6,C#CC1(O)C=CC2C3CCC4=CC(=O)CCC4C3CCC21CC (stereo not drawn) [Gestoden],9.46 min
7,CCSc1cc(OC)c(CCN)cc1OC [2CT-2],5.88 min
8,NC12CC3CC(CC(C3)C1)C2 [Amantadine],4.86 min
9,CCOP(=S)(OCC)SCS(=O)(=O)C(C)(C)C [Terbufos sulfone],9.01 min
10,COC(=O)Nc1nc2ccccc2[nH]1 [Carbendazim],5.46 min
11,CCOP(=S)(OCC)SCSP(=S)(OCC)OCC [Ethion],12.4 min
12,CCCC(Cn1cncn1)c1ccc(Cl)cc1Cl (stereo not drawn) [Penconazole],10.8 min
13,CCNc1nc(NC(C)C)nc(OC)n1 [Atraton],7.81 min
14,CCCC1COC(Cn2cncn2)(c2ccc(Cl)cc2Cl)O1 (stereo not drawn) [Propiconazole],11 min
15,Nc1ccc2c(c1)C(c1ccccc1F)=NCC(=O)N2 [Flunitrazepam-7-Amino-desmethyl],4.62 min
16,CC(N)Cc1c[nH]c2ccccc12 (stereo not drawn) [AMT (Alpha-Methyltryptamine)],4.44 min
17,CC(C)NCC(O)COc1ccc(CC(N)=O)cc1 (stereo not drawn) [Atenolol],3.09 min
18,CCCn1c(C)c(C(=O)c2cccc3ccccc23)c2ccccc21 [JWH-015],11.5 min
19,OC(c1ccc(F)cc1)(c1cncnc1)c1ccccc1Cl (stereo not drawn) [Nuarimol],9.17 min
20,CCCCCn1cc(C(=O)c2ccc(C)c3ccccc23)c2ccccc21 [JWH-122],12.9 min
21,O=C1CN=C(c2ccccc2Cl)c2cc(Br)ccc2N1 [Phenazepam],8.93 min
22,CCOP(=S)(NC(C)CC)Oc1cc(C)ccc1[N+](=O)[O-] (stereo not drawn) [Butamifos],11.2 min

# Second part, the compound after the results:
row,LC retention time,SMILES
1,7.09 min,CN(C)CCN(Cc1ccc(Cl)cc1)c1ccccn1 [Chloropyramine]
2,12.9 min,CC(C)c1cc(Oc2ccccc2)cc(C(C)C)c1NC(=S)NC(C)(C)C [Diafenthiuron]
3,4.94 min,CN(CCO)c1nc2c(c(=O)n(C)c(=O)n2C)n1C [Cafaminol]
4,9.49 min,CC(C)(C)C(O)C(Cc1ccc(Cl)cc1)n1cncn1 (stereo not drawn) [Paclobutrazole]
5,5.92 min,CCc1nc(N)nc(N)c1-c1ccc(Cl)cc1 [Pyrimethamine]
6,14.1 min,CCCCCCCCc1ccc(OCCOCCO)cc1 [Octylphenol diethoxylates (OP2EO)_NH4 adduct]
7,3.13 min,CN1C(=O)C(O)CC1c1cccnc1 (stereo not drawn) [Cotinine-Hydroxy]
8,12.4 min,CCOC(=O)C(Cl)=Cc1cc(N2C(=O)C3=C(CCCC3)C2=O)ccc1Cl [Cinidon-ethyl]
9,6.01 min,CC1CCCC(C)N1CCCC(O)(c1ccccc1)c1ccccn1 (stereo not drawn) [Pirmenol]
10,5.29 min,Cc1cccc(OCC(O)CNC(C)C)c1 (stereo not drawn) [Toliprolol]
11,3.63 min,c1cnc2cc3c(cc2n1)C1CNCC3C1 [Varenicline]
12,4.21 min,CCNc1nc(NCC)[nH]c(=O)n1 [Simazine-2-hydroxy]
13,8.49 min,CN(C)CCN1c2ccccc2Sc2ccc(Cl)cc21 [Chlorphenethazine]
14,7.98 min,CN1CCCN=C1COC(=O)C(O)(c1ccccc1)C1CCCCC1 (stereo not drawn) [Oxyphencyclimine]
15,7.03 min,COc1ccc(CCN(C)CCCC(C#N)(c2ccc(OC)c(OC)c2)C(C)C)cc1OC (stereo not drawn) [Verapamil]
16,6.36 min,COCCOc1ccccc1S(=O)(=O)NC(=O)Nc1nc(OC)nc(OC)n1 [Cinosulfuron]
17,5.33 min,C#CC[N+](C)([O-])C(C)Cc1ccccc1 (stereo not drawn) [Deprenyl-N-oxide]
18,10.2 min,CN1CCN(CCCN2c3ccccc3Sc3ccc(C(F)(F)F)cc32)CC1 [Trifluoperazine]
19,7.36 min,NC(=O)N1c2ccccc2C=Cc2ccccc21 [Carbamazepine]
20,4.98 min,Cc1nccn1CC1CCc2c(c3ccccc3n2C)C1=O (stereo not drawn) [Ondansetron]
21,10.6 min,CCCC(C)C(=O)Nc1ccc(C)c(Cl)c1 (stereo not drawn) [Pentanochlor]
22,4.18 min,COc1cnc(NS(=O)(=O)c2ccc(N)cc2)nc1 [Sulfameter (sulfumetin)]

row,LC retention time,SMILES
1,5.33 min,Cc1nc2n(c(=O)c1CCN1CCC(c3noc4cc(F)ccc34)CC1)CCCC2O (stereo not drawn) [Risperidone-9-OH (Paliperidone)]
2,6.2 min,Cc1cc(N(C)C)nc(Cl)n1 [Crimidine]
3,3.49 min,CN(C)CCc1c[nH]c2ccc(Cn3cncn3)cc12 [Rizatriptan]
4,4.94 min,Cc1cccc(C)c1N(Cn1cccn1)C(=O)CS(=O)CC(=O)O (stereo not drawn) [Metazachlor BH 479-9]
5,4.66 min,CC(C)(C)NCC(O)COc1ccccc1C#N (stereo not drawn) [Bunitrolol]
6,7.57 min,OCCN1CCN(CCCN2c3ccccc3Sc3cccnc32)CC1 [Oxypendyl]
7,11.3 min,CCCSc1nc(NC2CC2c2ccc(F)c(F)c2)c2nnn(C3CC(OCCO)C(O)C3O)c2n1 (stereo not drawn) [Ticagrelor]
8,5.72 min,Cc1c(NC(C)C)c(=O)n(-c2ccccc2)n1C [Ramifenazone]
9,10.2 min,O=C(O)Cc1ccccc1Nc1c(Cl)cccc1Cl [Diclofenac]
10,8.79 min,CN(C)CCC=C1c2ccccc2C(C)(C)c2ccccc21 [Melitracen]
11,6.66 min,COC(=O)C1=COC(C)C2CN3CCc4c([nH]c5ccccc45)C3CC12 (stereo not drawn) [Raubasine]
12,6.76 min,CCOC(=O)C1=CC(OC(CC)CC)C(NC(C)=O)C(N)C1 (stereo not drawn) [Oseltamivir]
13,10.8 min,Fc1cccc(F)c1-c1nnc(-c2ccccc2Cl)nn1 [Flufenzine (Diflovidazin)]
14,5.39 min,C[N+](C)([O-])CCC(c1ccccc1)c1ccccn1 (stereo not drawn) [Pheniramine N-Oxide]
15,9.86 min,O=C(O)c1cccnc1Nc1cccc(C(F)(F)F)c1 [Niflumic acid]
16,10.6 min,CC1CC2C3CCC4=CC(=O)C=CC4(C)C3(Cl)C(O)CC2(C)C1(OC(=O)c1ccco1)C(=O)CCl (stereo not drawn) [Mometasone fuorate]
17,10.6 min,CC(O)C1C(=O)N2C(C(=O)O)=C(SC3CNC(C(=O)N(C)C)C3)C(C)C12 (stereo not drawn) [Meropenem]
18,10.5 min,CN(C)CCOc1ccc(C(=C(CCCl)c2ccccc2)c2ccccc2)cc1 [Toremifene]
19,6.61 min,CC1Cc2ccccc2N1NC(=O)c1ccc(Cl)c(S(N)(=O)=O)c1 (stereo not drawn) [Indapamide]
20,10.7 min,C#CCOC(=O)C(C)Oc1ccc(Oc2ncc(Cl)cc2F)cc1 (stereo not drawn) [Clodinafop-propargyl]
21,11.1 min,COC(=O)C1=C(C)NC(C)=C(C(=O)OC(C)(C)CN(C)CCC(c2ccccc2)c2ccccc2)C1c1cccc([N+](=O)[O-])c1 (stereo not drawn) [Lercanidipine]
